# Test results from patent publication US8158575B2, “Agent for the prevention and treatment of sexually transmitted diseases-I” (priority 2001, dated 2012).
# Where “and” joins values, the source holds several entries; their conditions need not be identical. Equal entries are not always repeated.
# Assays:
# Lactobacillus crispatus = assay: Lactobacillus growth sensitivity assay; format: cell-based; conditions: 24 h growth, OD 490 nm
# Method: (§1) Lactobacillus crispatus and Lactobacillus jensenii were obtained from the American Type Tissue Culture Collection and grown in Lactobacilli MRS broth (Difco, Fisher Scientific, Pittsburgh, Pa.). This medium allows efficient growth of the Lactobacilli under anaerobic conditions. Bacillus stocks are produced and frozen in 15% glycerol at −80° C. for use in the sensitivity assay. To assess the effect of compounds on L. crispatus and L. jensenii growth, 10 ml of MRS media is inoculated with a stab from the glycerol bacterial stock. The culture is placed in a Gas Pak CO2 bag and incubated for 24 h at 37° C. The next day the lactobacillus cultures are diluted to an OD of 0.06 at a wavelength of 670 nm. Compounds are diluted and placed into a 96 well flat bottomed plate and the Lactobacillus sp. added. Commercially available Penicillin/Streptomycin solution at a high test concentration of 1.25 U/ml and 1.25 µg/ml, respectively, are used as the positive control. The plates are again incubated for 24 h at 37° C. in a Gas Pak CO2 bag and bacterial growth determined by measurement of optical density at 490 nm in a molecular devices plate reader. All determinations are performed with 6½ log dilutions from a high test concentration in triplicate.
# Lactobacillus jensenii = assay: Lactobacillus growth sensitivity assay; format: cell-based; conditions: 24 h growth, OD 490 nm
# Method: as §1
# HeLa CD4 LTR […]-gal cells [1] = assay: XTT toxicity on sister plate of the attachment assay; format: cell-based
# Method: This assay is designed to detect compounds that interact with the cell and block virus attachment, and/or compounds which interact with the forming attachment/fusion complex. The attachment assay is performed with HeLa CD4 LTR […]-gal cells. HeLa CD4 LTR […]-gal cells are routinely cultured with the required selection antibiotics. Twenty-four h prior to initiation of the assay the cells are trypsinized, counted and 1×10^4 cells placed in a 0.2 cm well in media without selection antibiotics. At 24 h media is removed and compound in media placed on the cells and incubated for 15 min at 37° C. A known titer of the IIIB strain of HIV is then added to the wells and the incubation continued for 1 h. At the end of the incubation the wells are washed 3 times with media and the culture continued for 40 to 48 h. At termination of the assay, media is removed and […]-galactosidase enzyme expression determined by chemiluminescence per manufacturers instructions (Tropix Gal-screen™, Bedford Mass.) by a single step chemiluminescent method using a single solution to lyse the cells and detect […]-galactosidase enzyme activity. Compound toxicity is monitored on a sister plate by XTT dye reduction. […] The virus adsorption interval of 1 h is sufficiently short that AZT, which requires phosphorylation to its active tri-phosphate form (AZT-TTP), is not active in this assay.
# [2] = biological target: T1, cell-to-cell fusion mediated by HIV-1 Env and CD4 (Human immunodeficiency virus type 1 group M subtype B, UniProt P04578); format: cell-based; conditions: TC50/IC50
# T1 construct: expressed in transfected cells; host or cells: HeLa CD4 LTR beta-gal cells (CD4) co-cultured with HL2/3 cells (HIV-1 Env)
# Method: (§2) The fusion assay assesses the ability of compounds to block cell-to-cell fusion mediated by HIV-1 Env and CD4 expressed on separate cells. This assay is sensitive to inhibitors of both the gp120/CD4 interaction and inhibitors of the X4 coreceptor. First, 5×10^3 HeLa CD4 LTR […]-gal cells are placed in microtiter wells and incubated overnight. The following day the media is removed and the HeLa CD4 LTR […]-gal cells are incubated for 1 h at 37° C. in fresh media with test compound. Following the incubation 5×10^3 HL2/3 cells are added and the incubation continued for 40 to 48 h. At 40 to 48 h […]-galactosidase enzyme expression is detected by chemiluminescence (Tropix Gal-screen™, Tropix, Bedford, Mass.). Compound toxicity is monitored on a sister plate using XTT dye reduction.
# HeLa CD4 LTR […]-gal cells [3] = assay: XTT toxicity on sister plate of the fusion assay; format: cell-based
# Method: as §2
# PBMCs = assay: MTS cell viability in PBMC assay; format: cell-based, human
# Source text: Human peripheral blood mononuclear cells from a minimum of 2 donors, that have been blasted with PHA and IL-2, were counted, viability determined by Trypan Blue dye exclusion and mixed in equal ratios. Pooled donors were used to minimize the variability observed between individual donors which results from quantitative and qualitative differences in HIV infection and overall response to the PHA and IL-2 of primary lymphocyte populations. The cells were resuspended at 1×10^6 cells/mL in RPMI 1640 without phenol red supplemented with 15% Fetal Bovine Serum (heat inactivated), 2 mM L-glutamine, 100 U/mL penicillin, 100 μg/mL streptomycin, 10 μg/mL gentamycin and IL-2 (20 U/mL, R&D Systems, Minneapolis, Minn.). Fifty microliters of cells were then distributed to the inner 60 wells of a 96 well round bottom microtiter culture plate in a standard format developed by the Infectious Disease Research department of Southern Research Institute. Each plate contains cell control wells (cells only), virus control wells (cells plus virus), and experimental wells (drug plus cells plus virus). Serially diluted compounds are added to the microtiter plate followed by the appropriate pre-titered strain of HIV-1 or SHIV-1. All samples were assayed in triplicate with a replicate plate without virus for the determination of compound toxicity. The final volume per well was 200 µL. The assay was incubated for 6 days in a humidified atmosphere at 37° C., 5% CO2, after which supernatants were collected, for analysis of RT activity and sister plates analyzed for cell viability by MTS dye reduction. Wells were also examined microscopically and any abnormalities noted.
# At assay termination the assay plates were stained with the soluble tetrazolium-based dye MTS (CellTiter® Reagent Promega, Madison, Wis.) to determined cell viability and quantify compound toxicity. […] At termination of the PBMC assay 20 µL of MTS reagent was added per well, and the wells are incubated for 4 h at 37° C.
# AZT has been used as a relevant positive control compound for the individual assays.
# HSV-2 = assay: Genital HSV prevention test in the mouse model; format: in vivo
# Method: The efficacy of SPL-7013 was tested in a genital HSV prevention test in the mouse (strain MS) model. A dose of 15 μl of 100 mg/ml, or 10 mg/ml of the compound was instilled into the vagina of 16 animals 20 sec before HSV-2 infection. […] Total mortality in three days of the same number of control infected mice was used as an end-point of the tests.
# [4] = tested on: viral strains of Herpes virus-2 resistant to modified nucleoside based antiviral agents; conditions: cell tests
# [5] = 100 mg/ml intravaginal, 20 sec. prior to infection
substance,measurement,setting,value
"BHAlyslys2lys4lys8lys16[NH—CO—CH2)O-3,6-Naphthyl-(SO3Na)2]32 [SPL-7013]",L. crispatus (ID50),Lactobacillus crispatus,>100 µg/mL
same,L jensenii (ID50),Lactobacillus jensenii,>100 µg/mL
same,Attachment Assay TC50,HeLa CD4 LTR […]-gal cells [1],>100 µg/mL
same,Fusion Assay TI,[2],>141
same,Fusion Assay TC50,HeLa CD4 LTR […]-gal cells [3],>100 µg/mL
same,HIV-1 RoJo Infected PBMCs TC50,PBMCs; plate of the HIV-1 RoJo test,>100 µg/mL
same,SHIV 89.6pd Infected PBMCs TC50,PBMCs; plate of the SHIV 89.6pd test,>100 µg/mL
same,Animals Protected Against Infection (%),"HSV-2; 10 mg/ml intravaginal, 20 sec. prior to infection",10/12 (83%)
same,Animals Protected Against Disease (%),HSV-2; [5],11/11 (100%) and 12/12 (100%)
same,Animals Protected Against Infection (%),HSV-2; [5],11/11 (100% and 12/12 (100%
same,Prevention of HSV-2 infection and disease (in words),HSV-2; 15 μl of 100 mg/ml or 10 mg/ml intravaginal 20 sec before HSV-2 infection,prevented infection and disease in all animals tested
same,Activity against resistant Herpes virus-2 strains (in words),[4],shown activity
